{"source": "patent US20060172941A1", "about": "“Anti-angiogenic peptides and methods of use thereof” (priority 2004, published 2006)", "key": {"[1]": {"system": "Bovine Retinal Endothelial Cells (BRE)", "assay": "VEGF-mediated survival/proliferation of bovine retinal endothelial cells (WST1)", "format": "cell-based", "conditions": "VEGF 25 ng/ml, 72 hours; for Inhibition of VEGF-mediated survival/proliferation: FIG. 4 and 5", "protocol": "(§1) The anti-angiogenic activities of the peptides were tested by measuring the level of inhibition of VEGF and bFGF mediated survival/proliferation of Bovine Retinal Endothelial Cells (BRE), Human Dermal Microvasculature Endothelial Cells, and Human Umbilical Vein Endothelial Cells, all of which are standard cell lines used to test anti-angiogenic compounds.\nBovine retinal endothelial (BRE) cells were maintained in Cambrex EG2 media. For non-adherent cell assays, on day one cells were starved for either 6 hours or overnight, then trypsinized and plated in 96-well plates in 100 μl of Optimem plus 1% fetal bovine serum (FBS). One hundred μl of Optimem plus 1% FBS was added to the wells containing, where appropriate, VEGF to a final concentration of 25 ng/ml, and the various peptides to final concentrations as described. For adherent cells, cells were plated in 96-well plates in complete media, allowed to adhere overnight, washed in starvation media (Optimem plus 1% FBS) and then starved during the day. At the end of the day, 100 μl of Optimem plus 1% FBS was added to the wells containing, where appropriate, VEGF to a final concentration of 25 ng/ml and the various peptides to final concentrations as described.\n(§2) In all cases, after 72 hours incubation, the amount of live cells in each well was measured with the WST1 assay (Roche)."}, "B16-F1 melanoma cells": {"system": "B16-F1 melanoma cells", "assay": "Subcutaneous B16 melanoma tumor growth in vivo", "set-up": "species or system mouse", "protocol": "Because of the importance of the angiogenic process for tumorigenesis, miniproteins as described herein, were hypothesized to show good anti-tumor activity. The peptides of the invention were tested in an in vivo model of anti-tumor activity. This model compares the growth of subcutaneous B16 melanoma tumor in vivo either untreated or treated with various amount of miniproteins described in this application. This model is widely accepted in the art as a model to test the anti-tumor activity of compounds that inhibit tumor growth because they have anti-angiogenic activity.\nMale C57BL/6 mice were obtained with a mean body weight of 20±2 g. Mouse B16-F1 melanoma cells were implanted subcutaneously (5×10^5 cell per animal). Peptides (formulated in water) were administered ip daily at the amount indicated starting the day after cells injection. In general, tumors became palpable around 9 days after injection of cells. Tumor were then measured every 2 days."}, "[2]": {"system": "VEGF binding to its receptor", "assay": "Inhibition of binding of radiolabeled VEGF to endothelial cells", "conditions": "30 μM; for VEGF binding inhibition: FIG. 7 legend", "protocol": "The activity of the peptides SEQ ID NO.: 1 and SEQ ID NO.: 2 in blocking the binding of radiolabeled VEGF to endothelial cells is shown in FIG. 7.\nFIG. 7 illustrates the inhibition of VEGF binding to its receptor by two miniproteins wherein a heparin binding domain is linked to an integrin binding domain. […] Both peptides achieved an almost 100% inhibition at a concentration of 30 μM."}, "[3]": {"assay": "Heparin binding activity, Hi Trap Heparin HP column, NaCl step elution", "conditions": "for [NaCl] for elution: heparin column; for fraction number: 500 μl fractions of heparin column elution", "source_text": "Liquid chromatography was used to determine the relative levels of heparin binding activity of the individual heparin binding domains and of the anti-angiogenic miniproteins that contains them. In this assay, the strength of the heparin binding activity is proportional to the amount of NaCl that is required to elute the peptide bound to the heparin column. Peptides with low binding activity are eluted with lower NaCl concentration, whereas higher concentrations of NaCl are required for peptides with higher binding activity.\nHi Trap Heparin HP column (1 ml, Amersham Biosciences) was equilibrated with 10 column volumes (CV) of equilibration (EQ) buffer=10 mM NaH2PO4 pH 7. All buffers were loaded onto columns via syringes. 500 μl fractions are collected (flow rate=1 ml/minute). 500 μg of peptide (1 mg/ml, resuspended in EQ buffer) was added to each column and the flow through was collected for analysis. The columns were then washed with 3 CV of EQ buffer. Peptides are then eluted with a step gradient of 500, 625, 750, 875 mM NaCl in EQ buffer, 2 CV per each step. A final step of 3 CV of 1000 mM NaCl in EQ buffer was collected in 500 μl fractions. The A210 nm was measured using EQ and elution buffers as blanks."}, "[4]": {"system": "L1210 murine leukemia cells", "assay": "L1210 murine leukemia intravenous model, survival", "format": "in vivo, mouse", "conditions": "dosed IP, FIG. 15a; for Survival: DBA/2 mice", "protocol": "Antitumor activity of test peptides, administered intraperitoneally (IP), were evaluated against L1210 murine leukemia cells implanted intravenously (IV) in DBA/2 mice.\nStudies generally consisted of randomly-assigned groups of 8 mice per group, which were inoculated IV with 1×10^5 cells per mouse from an in vivo leukemia cell line. In addition to groups tested with test peptides, studies usually included a vehicle-treated control group and a positive control group treated with an agent known to be active in the L1210 leukemia model. Starting one day after tumor inoculation (inoculation day defined as Day 0), mice were treated IP with either vehicle or test peptides in various schedules. Generally this consisted of treatment every other day for approximately 1 week (e.g., Days 1, 3, 5 and 7). A positive agent (e.g., cyclophosphamide) was usually given as a single IP injection on Day 1. All dosing solutions were prepared on each day of treatment. Survival was monitored daily and body weights were measured twice weekly. Anti-tumor activity was assessed by the increase in lifespan of the treated groups in comparison to the vehicle-treated control group. Studies with the L1210 leukemia model were limited to 30 days."}, "[5]": {"system": "Human Umbilical Vein Endothelial Cells", "assay": "bFGF-mediated survival/proliferation of human umbilical vein endothelial cells (WST1)", "format": "cell-based", "conditions": "FIG. 6, 9, 10, 17", "protocol": "as §1\nHuman umbilical cord endothelial (HUVEC) cells were maintained in Cambrex EGM-2MV media. On day one, cells were starved overnight in 1% FBS in M200 media (Cascade Biologicals). The morning after, the media were replaced with serum-free media (control) or media containing 25 ng/ml of human VEGF165 and the various peptides to final concentrations as described.\nas §2"}, "[6]": {"conditions": "20 mg/kg daily IP, vs untreated controls, FIG. 12 and 14"}, "[7]": {"conditions": "step gradient in 10 mM NaH2PO4 pH 7"}}, "note": "“Also recorded” adds a separate entry of the source. Where no end group is shown, it is not given here. [ ]: non-standard residue; d: D form.", "data": [{"sequence": "ATSLPPHSSQSP (listed as Homo sapiens) [ST100,038]", "values": [{"measurement": "Concentration that completely abolished VEGF-induced increase in WST-1 value", "setting": "[1]; FIG. 4", "value": "above 40 μM"}, {"measurement": "Inhibition of VEGF-mediated survival/proliferation", "setting": "[1]", "value": "caused the amount of WST-1 to decrease"}]}, {"sequence": "ATSLPPHSSQSPGGGPPAARGRRAARGRR (listed as Homo sapiens) [ST100,062]", "values": [{"measurement": "P (ANOVA) of tumor growth inhibition", "setting": "B16-F1 melanoma cells; 20 mg/kg daily IP, FIG. 12", "value": "> 0.05"}, {"measurement": "Inhibition of tumor growth", "setting": "B16-F1 melanoma cells; [6]", "value": "clearly inhibit tumor growth"}]}, {"sequence": "PYAGRGDSVVYGLGGGPGAARGRRAARGRR [ST100,033]", "values": [{"measurement": "inhibition of VEGF binding", "setting": "[2]", "value": "~100", "unit": "%"}, {"measurement": "VEGF binding inhibition", "setting": "[2]", "value": "completely abolished VEGF binding"}]}, {"sequence": "RAAKKRARAAKKRARAAKKRLGYVVSDGRGDYP (listed as Homo sapiens) [ST100,079]", "values": [{"measurement": "[NaCl] for elution", "setting": "[3]; [7]", "value": 1000, "unit": "mM"}]}, {"sequence": "RKGRRKGRRKGRRKGRRKGKK ([dR][dK]G[dR][dR][dK]G[dR][dR][dK]G[dR][dR][dK]G[dR][dR][dK]G[dK][dK]; listed as Homo sapiens) [ST100,087]", "values": [{"measurement": "heparin binding activity (comparison in words)", "setting": "[3]", "value": "even greater increase in heparin binding"}, {"measurement": "fraction number", "setting": "[3]", "value": "35-36"}, {"measurement": "[NaCl] for elution", "setting": "[3]; [7]", "value": 1500, "unit": "mM"}]}, {"sequence": "RKKAARARKKAARARKKAARRLGYVVSDGRGDYP (listed as Homo sapiens) [ST100,081]", "values": [{"measurement": "fraction number", "setting": "[3]", "value": "26-27"}, {"measurement": "[NaCl] for elution", "setting": "[3]; [7]", "value": 1000, "unit": "mM"}]}, {"sequence": "RKRAARARKRAARARKRAARR (listed as Homo sapiens) [ST100,083]", "values": [{"measurement": "[NaCl] for elution", "setting": "[3]; [7]", "value": 1100, "unit": "mM"}]}, {"sequence": "RLGYVVSDGRGDYPKKKRRGRAARRGRAA [ST100,065, middle rotated replaced version of ST100,061]", "values": [{"measurement": "heparin binding activity (comparison in words)", "setting": "[3]", "value": "bind less strongly than ST100,082"}, {"measurement": "[NaCl] for elution", "setting": "[3]; [7]", "value": 750, "unit": "mM"}, {"measurement": "Survival", "setting": "[4]", "value": "statistically significant increases in survival"}, {"measurement": "mice (cured mice) that survived longer than 30 days", "setting": "[4]", "value": "Sixty to eighty"}]}, {"sequence": "RRGRAAKKKRRGRAAKKK (listed as Homo sapiens) [ST100,082]", "values": [{"measurement": "fraction number", "setting": "[3]", "value": "26-27"}, {"measurement": "[NaCl] for elution", "setting": "[3]; [7]", "value": 1000, "unit": "mM"}]}, {"sequence": "RRGRAAKKKRRGRAAKKKPSQSSHPPLSTA (listed as Homo sapiens) [ST100,072]", "values": [{"measurement": "fraction number", "setting": "[3]", "value": "26-27"}, {"measurement": "[NaCl] for elution", "setting": "[3]; [7]", "value": 1000, "unit": "mM"}, {"measurement": "Inhibition of bFGF-mediated survival", "setting": "[5]", "value": "more potent in blocking bFGF stimulation"}]}, {"sequence": "RRGRAAKKKRRGRAAKKKRLGYVVSDGRGDYP [ST100,074]", "values": [{"measurement": "fraction number", "setting": "[3]", "value": "27-28"}, {"measurement": "[NaCl] for elution", "setting": "[3]; [7]", "value": 1000, "unit": "mM"}, {"measurement": "Inhibition of bFGF-mediated survival", "setting": "[5]", "value": "the most active in inhibiting bFGF stimulation"}, {"measurement": "Survival", "setting": "[4]", "value": "statistically significant increases in survival"}, {"measurement": "mice (cured mice) that survived longer than 30 days", "setting": "[4]", "value": "Sixty to eighty"}]}, {"sequence": "RRGRAARRGRAAKKKPSQSSHPPLSTA (listed as Homo sapiens) [ST100,068]", "values": [{"measurement": "[NaCl] for elution", "setting": "[3]; [7]", "value": 875, "unit": "mM"}, {"measurement": "Inhibition of VEGF-mediated survival/proliferation", "setting": "[1]", "value": "VEGF stimulation was inhibited with increasing doses; also recorded: more potent in blocking VEGF stimulation"}, {"measurement": "Inhibition of tumor growth", "setting": "B16-F1 melanoma cells; 20 mg/kg and 40 mg/kg daily IP, FIG. 13", "value": "able to inhibit tumor growth"}]}, {"sequence": "RRGRAARRGRAARRGRAAKKKPSQSSHPPLSTA (listed as Homo sapiens) [ST100,073]", "values": [{"measurement": "fraction number", "setting": "[3]", "value": "26-27"}, {"measurement": "[NaCl] for elution", "setting": "[3]; [7]", "value": 1000, "unit": "mM"}, {"measurement": "Inhibition of bFGF-mediated survival", "setting": "[5]", "value": "more potent in blocking bFGF stimulation; also recorded: the most active in inhibiting bFGF stimulation"}, {"measurement": "Inhibition of tumor growth", "setting": "B16-F1 melanoma cells; [6]", "value": "able to inhibit tumor growth"}]}, {"sequence": "RRGRARRGRARRGRARRGKK ([dR][dR]G[dR][dA][dR][dR]G[dR][dA][dR][dR]G[dR][dA][dR][dR]G[dK][dK]; listed as Homo sapiens) [ST100,085]", "values": [{"measurement": "fraction number", "setting": "[3]", "value": "31-32"}, {"measurement": "[NaCl] for elution", "setting": "[3]; [7]", "value": 1100, "unit": "mM"}]}, {"sequence": "RRGRRRGRRRGRRRGKK (listed as Homo sapiens) [ST100,089]", "values": [{"measurement": "heparin binding activity (comparison in words)", "setting": "[3]", "value": "even greater increase in heparin binding"}, {"measurement": "fraction number", "setting": "[3]", "value": "34-35"}, {"measurement": "[NaCl] for elution", "setting": "[3]; unit given as M", "value": 1300, "unit": "mM"}]}, {"sequence": "RRGRRRGRRRGRRRGKKPSQSSHPPLSTA ([dR][dR]G[dR][dR][dR]G[dR][dR][dR]G[dR][dR][dR]G[dK][dK][dP][dS][dQ][dS][dS][dH][dP][dP][dL][dS][dT][dA]; listed as Homo sapiens) [ST100,093]", "values": [{"measurement": "Inhibition of bFGF-mediated survival", "setting": "[5]", "value": "more potent than similar peptides with weaker heparin binding domains"}]}, {"sequence": "RRQRRRGRRRQRRRGKK (listed as Homo sapiens) [ST100,090]", "values": [{"measurement": "heparin binding activity (comparison in words)", "setting": "[3]", "value": "even greater increase in heparin binding"}, {"measurement": "fraction number", "setting": "[3]", "value": "33-34"}, {"measurement": "[NaCl] for elution", "setting": "[3]; [7]", "value": 1300, "unit": "mM"}]}, {"sequence": "YDGRGDSVVYGLKKKAARGRRAARGRR [ST100,032]", "values": [{"measurement": "inhibition of VEGF binding", "setting": "[2]", "value": "~100", "unit": "%"}, {"measurement": "VEGF binding inhibition", "setting": "[2]", "value": "completely abolished VEGF binding"}]}]}
